Measurements reported in article PMC3123436 (Bioorganic & medicinal chemistry, 2011).
≈ marks a conversion by molar mass, not a printed value. Read-outs that look alike come from different tables or passages of the source.

How the values were obtained:
[1] = biological target: recombinant M. tuberculosis MshC (Mycobacterium tuberculosis, UniProt P9WJM9); assay type: biochemical
Vero-E6 cells = details: African green monkey, 2 d
M. tuberculosis CDC1551 = assay: 96 well plate growth inhibition; details: visual, 8–10 d
[2] = tested on: MSH biosynthesis in M. tuberculosis Erdman; assay: MSH and GlcN-Ins levels in M. tuberculosis Erdman cultured 7 d with 2; details: 20–75 μM 2, 7 d culture, two independent experiments
[3] = tested on: M. tuberculosis Erdman (control strain); assay: 96 well plate growth inhibition
M. tuberculosis Erdman = assay: Inhibition of exponentially growing M. tuberculosis Erdman, 7 d flask culture

recombinant M. tuberculosis MshC, sequence (P9WJM9 whole entry, looked up): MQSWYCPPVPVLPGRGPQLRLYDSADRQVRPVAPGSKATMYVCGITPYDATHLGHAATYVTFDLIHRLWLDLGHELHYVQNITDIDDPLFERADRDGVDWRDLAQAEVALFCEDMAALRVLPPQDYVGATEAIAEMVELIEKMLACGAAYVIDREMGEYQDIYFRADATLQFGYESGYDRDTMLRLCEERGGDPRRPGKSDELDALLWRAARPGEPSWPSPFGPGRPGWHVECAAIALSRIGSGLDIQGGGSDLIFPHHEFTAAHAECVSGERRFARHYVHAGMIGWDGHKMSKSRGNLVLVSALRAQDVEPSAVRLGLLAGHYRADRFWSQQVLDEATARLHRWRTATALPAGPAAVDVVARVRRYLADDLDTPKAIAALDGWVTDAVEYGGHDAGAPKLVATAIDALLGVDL

For `O=C(NCCCN1CCOCC1)c1ccc2c(c1)N(Cc1cccc(Cl)c1)C(=O)c1ccccc1[S+]2[O-]` (stereo not shown) [Compound 14], the “MshC inhibition, in words” value [1] was “similarly ineffective”.
In the case of `Cc1ccc(CN2C(=O)c3ccccc3[S+]([O-])c3ccc(C(=O)NCCCN(C)C4CCCCC4)cc32)c(C)c1` (stereo not shown) [Compound 40], the “MshC inhibition, in words” value ([1]; SAR discussion) is reported as “just detectable inhibition”.
With `CCC1CCCCN1CCCNC(=O)c1ccc2c(c1)N(Cc1cccc(Cl)c1)C(=O)c1ccccc1[S+]2[O-]` (stereo not shown) [Compound 12] the “Vero Cell toxicity (MIC90)” value (Vero-E6 cells) was 100 µM.
With `Cc1ccc(CN2C(=O)c3ccccc3S(=O)(=O)c3ccc(C(=O)NCCCN4CCCC4)cc32)c(C)c1` [Compound 42] the “MshC inhibition, in words” value ([1]; SAR discussion) was “just detectable inhibition”.
In the case of `Cc1ccc(CN2C(=O)c3ccccc3S(=O)(=O)c3ccc(C(=O)NCCCN4CCOCC4)cc32)c(C)c1` [Compound 43], the “MshC inhibition, in words” value ([1]; SAR discussion) is reported as “no measurable inhibition”.
In the case of `CC1CC(C)CN(CCCNC(=O)c2ccc3c(c2)N(Cc2cccc(Cl)c2)C(=O)c2ccccc2[S+]3[O-])C1` (stereo not shown) [Compound 10], the “MshC inhibition, in words” value [1] is reported as “less effective”.
For `CN(CCCNC(=O)c1ccc2c(c1)N(Cc1ccc(F)cc1)C(=O)c1ccccc1[S+]2[O-])C1CCCCC1` (stereo not shown) [Compound 37], the “fold increase of IC50 / loss in activity compared to 2” value [1] was over 35 fold.
With `CC1CCCN(CCCNC(=O)c2ccc3c(c2)N(Cc2cccc(Cl)c2)C(=O)c2ccccc2[S+]3[O-])C1` (stereo not shown) [Compound 19] the “Vero Cell toxicity (MIC90)” value (Vero-E6 cells) was 100 µM.
In the case of `CCCN(CCC)CCCNC(=O)c1ccc2c(c1)N(Cc1ccc(F)cc1)C(=O)c1ccccc1[S+]2[O-]` (stereo not shown) [Compound 36], the “fold loss in activity compared with 21” value [1] is reported as 30 fold.
In the case of `CN(CCCNC(=O)c1ccc2c(c1)N(Cc1cccc(Cl)c1)C(=O)c1ccccc1S2)C1CCCCC1` [Compound 5, 10-(3-Chlorobenzyl)-N-(3-(cyclohexyl(methyl)amino)-propyl)-11-oxo-10,11 dihydrodibenzo[b,f][1,4]thiazepine-8-carboxamide], the “MshC inhibition, in words” value ([1]; SAR discussion) is reported as “less active than their corresponding sulfoxides”.
With `CCN(CC)CCCNC(=O)c1ccc2c(c1)N(Cc1ccc(C)cc1C)C(=O)c1ccccc1[S+]2[O-]` (stereo not shown) [Compound 41] the “MshC inhibition, in words” value ([1]; SAR discussion) was “no measurable inhibition”.
With `O=C(NCCCN1CCCC1)c1ccc2c(c1)N(Cc1cccc(Cl)c1)C(=O)c1ccccc1[S+]2[O-]` (stereo not shown) [Compound 17] the “MIC95 (95% inhibition)” value (M. tuberculosis CDC1551) was 220 µM (≈ 115 µg/mL).
`CN(CCCNC(=O)c1ccc2c(c1)N(Cc1cccc(Cl)c1)C(=O)c1ccccc1[S+]2[O-])C1CCCCC1` (stereo not shown) [Compound 2, N-[3-(cyclohexylmethylamino)propyl]-10-[(3-chlorophenyl)methyl]-10,11-dihydro-11-oxo-dibenzo-[b,f][1,4]-thiazepine-8-carboxamide-5-oxide] was tested, and the “MIC95 (95% inhibition)” value (M. tuberculosis CDC1551) was 110 µM (≈ 62.1 µg/mL), the “increase in the level of GlcN-Ins” value [2] was 9 fold and the “MIC95 (95% inhibition)” value [3] was 28 to 55 µM. The “concentration at which inhibition of growth was apparent” value (M. tuberculosis Erdman) was 20 µM and the “viable cells relative to day 0 inoculum” value (M. tuberculosis Erdman; 50 or 75 μM, plating) was “one-third”.
In the case of `O=C(NCCN1CCCCCC1)c1ccc2c(c1)N(Cc1cccc(Cl)c1)C(=O)c1ccccc1[S+]2[O-]` (stereo not shown) [Compound 20], the “Vero Cell toxicity (MIC90)” value (Vero-E6 cells) is reported as 100 µM and the “MIC95 (95% inhibition)” value (M. tuberculosis CDC1551) is reported as 110 µM (≈ 59 µg/mL).
For `O=C(NCCCSC1CCCCC1)c1ccc2c(c1)N(Cc1cccc(Cl)c1)C(=O)c1ccccc1[S+]2[O-]` (stereo not shown) [Compound 6], the “MshC inhibition, in words” value ([1]; SAR discussion) was “complete loss of measurable activity”.
With `CCCCSCCCNC(=O)c1ccc2c(c1)N(Cc1cccc(Cl)c1)C(=O)c1ccccc1[S+]2[O-]` (stereo not shown) [Compound 8] the “MshC inhibition, in words” value [1] was “complete loss of measurable activity”.
For `O=C(NCCCN1CCOCC1)c1ccc2c(c1)N(Cc1cccc(Cl)c1)C(=O)c1ccccc1S2` [Compound 15], the “MshC inhibition, in words” value ([1]; SAR discussion) was “less active than their corresponding sulfoxides”.
`CC1CCCN(CCCNC(=O)c2ccc3c(c2)N(Cc2ccc(F)cc2)C(=O)c2ccccc2[S+]3[O-])C1` (stereo not shown) [Compound 35] was tested, and the “fold less active than 3-chlorobenzyl derivative 19” value [1] was 5 fold.
In the case of `O=C(NCCCN1CCCC1)c1ccc2c(c1)N(Cc1cccc(Cl)c1)C(=O)c1ccccc1S2` [Compound 18], the “MIC95 (95% inhibition)” value (M. tuberculosis CDC1551) is reported as 110 µM (≈ 55.7 µg/mL) and the “MshC inhibition, in words” value ([1]; SAR discussion) is reported as “less active than their corresponding sulfoxides”.
